This passage reports EC50 results from patent US11479539B2, “Small molecule modulators of the BTB domain of Keap1” (MedImmune Limited, priority 2017, dated 2022).

A value given as a limit tells only on which side of the number the result lay.

The target of the assay is Keap1 (Homo sapiens (Human), UniProt Q14145). As to the kind of experiment: HEK293 ARE luciferase assay. The following applies: HEK-293 ARE firefly luciferase transiently transfected cells; 18 h incubation; mean of 1 to 20 individual measurements. The format is cell-based. In outline:
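Keap1 inhibition read as Nrf2-driven luciferase rise: compounds dosed in 10 points up to 100 μM (0.3% DMSO) on HEK-293 ARE luciferase cells, 10,000/well, 18 h at 37 °C, then SteadyGlo luminescence. Scaled between DMSO vehicle and 30 μM tBHQ; values average 1-20 runs.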

Sequence of Keap1 (Q14145 whole entry): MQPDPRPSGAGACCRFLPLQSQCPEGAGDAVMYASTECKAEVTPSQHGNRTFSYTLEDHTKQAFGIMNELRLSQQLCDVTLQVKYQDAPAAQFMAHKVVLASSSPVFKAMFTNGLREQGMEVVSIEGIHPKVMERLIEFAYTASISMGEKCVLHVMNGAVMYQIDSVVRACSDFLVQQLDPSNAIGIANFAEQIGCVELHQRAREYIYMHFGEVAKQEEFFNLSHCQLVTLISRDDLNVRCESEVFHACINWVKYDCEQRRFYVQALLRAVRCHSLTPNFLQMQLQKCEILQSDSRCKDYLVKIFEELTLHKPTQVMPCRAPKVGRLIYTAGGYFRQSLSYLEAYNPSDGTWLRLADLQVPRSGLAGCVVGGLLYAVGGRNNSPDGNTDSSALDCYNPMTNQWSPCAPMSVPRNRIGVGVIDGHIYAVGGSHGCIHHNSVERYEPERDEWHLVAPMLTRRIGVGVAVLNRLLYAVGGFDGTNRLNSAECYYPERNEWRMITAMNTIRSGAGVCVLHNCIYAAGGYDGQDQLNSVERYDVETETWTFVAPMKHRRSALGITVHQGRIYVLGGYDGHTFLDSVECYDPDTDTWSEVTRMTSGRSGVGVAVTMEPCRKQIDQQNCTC

In turn, `COC1(c2ncc(F)cc2-c2cncc(C(=O)N(C)C)c2)C=C(C#N)C(=O)C(C)(C)C1` (single isomer, unassigned) [Compound 227, 2′-(3-cyano-1-methoxy-5,5-dimethyl-4-oxocyclohex-2-en-1-yl)-5′-fluoro-N,N-dimethyl[3,3′-bipyridine]-5-carboxamide] had an EC50 of 15 nM.
As for `COC1(c2cccc(-c3c(C)noc3C)n2)C=C(C#N)C(=O)C2(CC2)C1` (single isomer, unassigned) [Compound 52, 7-(6-(3,5-dimethylisoxazol-4-yl)pyridin-2-yl)-7-methoxy-4-oxospiro[2.5]oct-5-ene-5-carbonitrile], a half-maximal response (EC50) required 74 nM.
As for `COC1(c2ncc(F)cc2-c2cc(C)nc(C)c2)C=C(C#N)C(=O)C(C)(C)C1` (single isomer, unassigned) [Compound 77, 3-[3-(2,6-dimethyl-4-pyridyl)-5-fluoro-2-pyridyl]-3-methoxy-5,5-dimethyl-6-oxo-cyclohexene-1-carbonitrile], the figure is 4 nM; as for `CO[C@]1(c2ncc(C)s2)C=C(C#N)C(=O)C(C)(C)C1` [Compound 40, (S)-3-methoxy-5,5-dimethyl-3-(5-methylthiazol-2-yl)-6-oxocyclohex-1-enecarbonitrile], 38 nM.
To `COC1(c2ncc(F)cc2OC(F)F)C=C(C#N)C(=O)C2(CC2)C1` (single isomer, unassigned) [Compound 62, 7-[3-(difluorometh-oxy)-5-fluoropyridin-2-yl]-7-methoxy-4-oxospiro[2.5]oct-5-ene-5-carbonitrile] belongs 15 nM; to `COC1(c2ncc(F)cc2-c2cnn(C)c2)C=C(C#N)C(=O)C(C)(C)C1` (stereo not shown) [Compound 161, 3-[5-fluoro-3-(1-methyl-1H-pyrazol-4-yl)pyridin-2-yl]-3-methoxy-5,5-dimethyl-6-oxocyclohex-1-ene-1-carbonitrile], 14 nM; to `COC1(c2cncc(C)n2)C=C(C#N)C(=O)C2(CC2)C1` (single isomer, unassigned) [Compound 54, 7-methoxy-7-(6-methylpyrazin-2-yl)-4-oxospiro[2.5]oct-5-ene-5-carbonitrile], 363 nM.
As for `COC1(c2ncc(F)cc2-c2cncc(F)c2)C=C(C#N)C(=O)C(C)(C)C1` (stereo not shown) [Compound 182, 3-(5,5′-difluoro[3,3′-bipyridin]-2-yl)-3-methoxy-5,5-dimethyl-6-oxocyclohex-1-ene-1-carbonitrile], the figure is 105 nM.
With `COC1(c2ccccn2)C=C(C#N)C(=O)C(C)(C)C1` (stereo not shown) [Compound 11, 3-methoxy-5,5-dimethyl-6-oxo-3-(2-pyridyl)cyclohexene-1-carbonitrile], the EC50 came out at 85 nM.
In turn, `COC1(c2cccc(-c3cncnc3)n2)C=C(C#N)C(=O)C2(CC2)C1` (stereo not shown) [Compound 127, 7-methoxy-4-oxo-7-[6-(pyrimidin-5-yl)pyridin-2-yl]spiro[2.5]oct-5-ene-5-carbonitrile] yielded an EC50 of 267 nM.
As for `COC1(c2ncc(F)cc2C(F)(F)F)C=C(C#N)C(=O)C(C)(C)C1` (stereo not shown) [Compound 151, 3-[5-fluoro-3-(trifluoromethyl)pyridin-2-yl]-3-methoxy-5,5-dimethyl-6-oxocyclohex-1-ene-1-carbonitrile], the figure is 34 nM; as for `COC1(c2ncc(F)cc2F)C=C(C#N)C(=O)C2(CC2)C1` (stereo not shown) [Compound 156, 7-(3,5-difluoropyridin-2-yl)-7-methoxy-4-oxospiro[2.5]oct-5-ene-5-carbonitrile], 249 nM.
As for `COC1(c2cccc(-c3c(C)noc3C)n2)C=C(C#N)C(=O)C2(CC2)C1` (stereo not shown) [Compound 130, 7-[6-(3,5-dimethyl-1,2-oxazol-4-yl)pyridin-2-yl]-7-methoxy-4-oxospiro[2.5]oct-5-ene-5-carbonitrile], the figure is 153 nM.
As for `COC1(c2ncc(F)cc2-c2cnc(C)nc2)C=C(C#N)C(=O)C(C)(C)C1` (stereo not shown) [Compound 183, 3-[5-fluoro-3-(2-methylpyrimidin-5-yl)pyridin-2-yl]-3-methoxy-5,5-dimethyl-6-oxocyclohex-1-ene-1-carbonitrile], the figure is 121 nM; as for `C/C=C/c1cc(F)cnc1C1(OC)C=C(C#N)C(=O)C(C)(C)C1` (single isomer, unassigned) [Compound 94, 3-{5-fluoro-3-[(1E)-prop-1-en-1-yl]pyridin-2-yl}-3-methoxy-5,5-dimethyl-6-oxocyclohex-1-ene-1-carbonitrile], 21 nM; as for `COC1(c2cccnc2Br)C=C(C#N)C(=O)C(C)(C)C1` (stereo not shown) [Compound 21, 3-(2-bromo-3-pyridyl)-3-methoxy-5,5-dimethyl-6-oxo-cyclohexene-1-carbonitrile], 452 nM.
In turn, `CO[C@]1(c2ncsc2C)C=C(C#N)C(=O)C(C)(C)C1` [Compound 38, (S)-3-methoxy-5,5-dimethyl-3-(5-methylthiazol-4-yl)-6-oxocyclohex-1-enecarbonitrile] came in with an EC50 of 132 nM. This EC50 lies about 3.4-fold lower than the previous one.
The compound `COC1(c2ccccc2C(F)(F)F)C=C(C#N)C(=O)C(C)(C)C1` (stereo not shown) [Compound 19, 3-methoxy-5,5-dimethyl-6-oxo-3-[2-(trifluoromethyl)phenyl]cyclohexene-1-carbonitrile] yielded an EC50 of 1240 nM.
As for `COC1(c2ncc(F)cc2-c2cncc(Cl)c2)C=C(C#N)C(=O)C(C)(C)C1` (stereo not shown) [Compound 185, 3-(5′-chloro-5-fluoro[3,3′-bypyridin]-2-yl)-3-methoxy-5,5-dimethyl-6-oxocyclohex-1-ene-1-carbonitrile], the figure is 8 nM; as for `COC1(c2ncc(F)cc2Cl)C=C(C#N)C(=O)C(C)(C)C1` (single isomer, unassigned) [Compound 224, 3-(3-chloro-5-fluoropyridin-2-yl)-3-methoxy-5,5-dimethyl-6-oxocyclohex-1-ene-1-carbonitrile], 14 nM.
To `COc1cncc(-c2cc(F)cnc2C2(OC)C=C(C#N)C(=O)C(C)(C)C2)c1` (single isomer, unassigned) [Compound 237, 3-(5-fluoro-5′-methoxy[3,3′-bipyridin]-2-yl)-3-methoxy-5,5-dimethyl-6-oxocyclohex-1-ene-1-carbonitrile] belongs 20 nM; to `COC1(c2ncc(F)cc2-c2cnn(C)c2)C=C(C#N)C(=O)C(C)(C)C1` (single isomer, unassigned) [Compound 69, 3-[5-fluoro-3-(1-methyl-1H-pyrazol-4-yl)pyridin-2-yl]-3-methoxy-5,5-dimethyl-6-oxocyclohex-1-ene-1-carbonitrile], 2 nM.
To `COC1(c2nc(C)cs2)C=C(C#N)C(=O)C2(CC2)C1` (stereo not shown) [Compound 140, 7-methoxy-7-(4-methyl-1,3-thiazol-2-yl)-4-oxospiro[2.5]oct-5-ene-5-carbonitrile] belongs 140 nM.
`COC1(c2ncc(F)cc2-c2ccnc(S(=O)(=O)N(C)C)c2)C=C(C#N)C(=O)C(C)(C)C1` (single isomer, unassigned) [Compound 207, 2-[3-cyano-1-methoxy-5,5-dimethyl-4-oxocyclohex-2-en-1-yl]-5-fluoro-N,N-dimethyl[3,4′-bipyridine]-2′-sulfonamide] yielded an EC50 of 48 nM.
As for `COC1(c2ncc(F)cc2-c2cccc(=O)[nH]2)C=C(C#N)C(=O)C(C)(C)C1` (stereo not shown) [Compound 193, 3-(5′-fluoro-6-oxo[1,6-dihydro[2,3′-bipyridine]]-2′-yl)-3-methoxy-5,5-dimethyl-6-oxocyclohex-1-ene-1-carbonitrile], the figure is > 10000 nM; as for `COC1(c2ncc(F)cc2C(F)F)C=C(C#N)C(=O)C2(CC2)C1` (stereo not shown) [Compound 196, 7-[3-(difluoromethyl)-5-fluoropyridin-2-yl]-7-methoxy-4-oxospiro[2.5]oct-5-ene-5-carbonitrile], 46 nM; as for `CO[C@]1(c2ncc(F)cc2C(F)F)C=C(C#N)C(=O)C(C)(C)C1` [Compound 42, (3S)-3-[3-(difluoromethyl)-5-fluoropyridin-2-yl]-3-methoxy-5,5-dimethyl-6-oxocyclohex-1-ene-1-carbonitrile], 33 nM.
To `COC1(c2ncccc2-c2ccccc2)C=C(C#N)C(=O)C(C)(C)C1` (stereo not shown) [Compound 7, 3-methoxy-5,5-dimethyl-6-oxo-3-(3-phenyl-2-pyridyl)cyclohexene-1-carbonitrile] belongs 82 nM; to `COC1(c2cccnc2-c2cnn(C)c2)C=C(C#N)C(=O)C(C)(C)C1` (stereo not shown) [Compound 25, 3-methoxy-5,5-dimethyl-3-[2-(1-methylpyrazol-4-yl)-3-pyridyl]-6-oxo-cyclohexene-1-carbonitrile], 70 nM; to `COC1(c2sccc2C)C=C(C#N)C(=O)C(C)(C)C1` (stereo not shown) [Compound 139, 3-methoxy-5,5-dimethyl-3-(3-methylthiophen-2-yl)-6-oxocyclohex-1-ene-1-carbonitrile], 381 nM.
As for `COC1(c2cccc(-c3cncnc3)n2)C=C(C#N)C(=O)C2(CC2)C1` (single isomer, unassigned) [Compound 51, 7-methoxy-4-oxo-7-(6-(pyrimidin-5-yl)pyridin-2-yl)spiro[2.5]oct-5-ene-5-carbonitrile], the figure is 48 nM.
The compound `COC1(c2ncc(F)cc2-c2ccns2)C=C(C#N)C(=O)C(C)(C)C1` (stereo not shown) [Compound 178, 3-[5-fluoro-3-(1,2-thiazol-5-yl)pyridin-2-yl]-3-methoxy-5,5-dimethyl-6-oxocyclohex-1-ene-1-carbonitrile] came in with a 50% effective concentration (EC50) of 52 nM.
On to `CCn1cc(-c2cc(F)cnc2C2(OC)C=C(C#N)C(=O)C(C)(C)C2)cn1` (single isomer, unassigned) [Compound 86, 3-[3-(1-ethylpyrazol-4-yl)-5-fluoro-2-pyridyl]-3-methoxy-5,5-dimethyl-6-oxo-cyclohexene-1-carbonitrile], for which a half-maximal effect (EC50) was put at 9 nM.
As for `COC1(c2nc(C(F)(F)F)cs2)C=C(C#N)C(=O)C(C)(C)C1` (single isomer, unassigned) [Compound 33, 3-methoxy-5,5-dimethyl-6-oxo-3-(4-(tri-fluoromethyl)thia-zol-2-yl)cyclohex-1-enecarbonitrile], the figure is 383 nM.

For orientation: EC50 means the midpoint of the concentration-response curve. High values mean a need for much substance, low ones an effect from little substance.
